pIC50: −log10 of the molar value.
Tested on: 857933-349-R-J2-PDC complex spheroid viability
Experiment: Anticancer human tumor 857933-349-R-J2-PDC patient-derived colon adenocarcinoma cell line growth inhibition [POLQ]
Details: for pIC50: curve of first compound; for viability, T/C: stronger effect = lower value
Method: Multicellular complex tumor spheroid response to Polymerase (POL) inhibitors (novobiocin, ART-558, RP6685) in combination with a variety of drugs and investigational agents in selected tumor cell lines
The POL inhibitors (novobiocin, ART-558, and RP6685) were evaluated both individually and in combination with standard of care and investigational anticancer small molecules within a complex spheroid model of solid tumors. . Complex spheroids include a stromal component modeled by human endothelial cells (HUVEC) and fibroblasts modeled by human mesenchymal stem cells (MSCs). The concentration ranges selected for each drug and investigational agent were based upon clinically achievable concentrations if the clinical Cmax of the agent was known.
Compounds. The drugs and investigational agents: novobiocin (NSC847541), ART-558 (NSC835418), RP-6685 (NSC848927), peposertib (NSC802822), ceralasertib (NSC780249), elimusertib (NSC800525), camonsertib (NSC841442), AZD-1390 (NSC803789), olaparib (NSC753686), talazoparib (NSC767125), rucaparib (NSC756644), sotorasib (NSC818433), MRTX-1133 (NSC836407), SN-38 (NSC673596), topotecan (NSC609699), epotoside (NSC141540), doxorubicin (NSC123127), gemcitabine (NSC613327), 5-fluorouracil (NSC19893), paclitaxel (NSC125973), vemurafenib (NSC761431), MSA-2 (NSC828583), SN-011 (NSC837082), adavosertib (NSC754352), prexasertib (NSC758257), carboplatin (NSC241240) and oxaliplatin (NSC266046), were obtained from the National Cancer Institute (NCI) Developmental Therapeutics Program Chemical Repository (21). The FDA-approved anticancer drug set is available from the Developmental Therapeutics Program at https://dtp.cancer.gov/organization/dscb/obtaining/. […] The stock solutions were prepared in dimethyl sulfoxide (DMSO, Sigma-Aldrich, St. Louis, MO, cat. D2650), except for the platinum compounds which were prepared in saline (Quality Biological, Gaithersburg, MD, cat. 114-055-101), at 800-fold the tested concentration and stored at -70 degrees C prior to their use. All drugs and investigational agents were tested over a range starting from a high concentration at or near the clinical Cmax and decreasing in half-log increments. If the clinical Cmax for an agent had not been determined, the highest concentration tested was 10 microM, except for SN-38, which was tested at a high concentration of 1 microM.
Cell Culture. All cells were maintained in an incubator at 37 degrees C and 5% CO2 with 95% humidity. The PDC lines were cultured according to standard operating procedures established by the NCI PDMR (https://pdmr.cancer.gov). Table 3 of the manuscript, lists the cell lines along with the number of the three cell types plated to form the mct-spheroids and media for tumor cell growth. After thawing, all PDC lines, except 997537-175-T-J1-PDC and 415267-285-R-J2-PDC, were cultured in Matrigel-coated flasks prepared with a working solution of 1X Ham's F-12 nutrient mix, without supplementation (Thermo Fisher Scientific, cat. 11765054), 100 U/mL penicillin-streptomycin (Thermo Fisher Scientific, cat. 15140122), and 2.5% Matrigel (Corning Inc., Corning, NY, cat. 354248) for the first three passages. The two PDC lines 997537-175-T-J1-PDC and 415267-285-R-J2-PDC were cultured on uncoated flasks. The 857933-349-R-J2-PDC line was cultured in 6C/Colon 1B media containing advanced DMEM/F-12 (Thermo Fisher Scientific, cat. 12634028), 10 mM HEPES (Thermo Fisher Scientific, cat. 15630080), 1X GlutaMAX supplement (Thermo Fisher Scientific, cat. 35050061), 0.1 mg/mL primocin (InvivoGen, San Diego, CA, cat. ant-pm-2), 10% defined fetal bovine serum, heat inactivated (HyClone Laboratories Inc., Logan, UT, cat. SH30070.03HI), 50% L-WRN conditioned media (ATCC, cat. CRL-3276), 1.25 mM N-Acetyl-L-cysteine (Sigma-Aldrich, cat. A9165), 10 mM nicotinamide (Sigma-Aldrich, cat. N0636), 1X B-27 supplement (Thermo Fisher Scientific, cat. 17504044), 1X N-2 supplement (Thermo Fisher Scientific, cat. […]

[1] = second compound 0.0316 µM, first compound 0.0316 µM
[2] = second compound 0.0316 µM, first compound 0.1 µM
[3] = second compound 0.1 µM, first compound 0.0316 µM
[4] = second compound 0.1 µM, first compound 0.1 µM
[5] = second compound 0.316 µM, first compound 0.0316 µM
[6] = second compound 0.316 µM, first compound 0.1 µM
[7] = second compound 1 µM, first compound 0.0316 µM
[8] = second compound 1 µM, first compound 0.1 µM
[9] = second compound 3.16 µM, first compound 0.0316 µM
[10] = second compound 3.16 µM, first compound 0.1 µM
[11] = second compound 10 µM, first compound 0.0316 µM
[12] = second compound 10 µM, first compound 0.1 µM
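Also: spheroids exposed to compounds for seven days before readout.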

## CC[C@@]1(O)C(=O)OCc2c1cc1n(c2=O)Cc2cc3c(CN(C)C)c(O)ccc3nc2-1 + Nc1ccc(C#CCN(C(=O)Cc2ncc(C(F)(F)F)cc2C(F)(F)F)c2ccc(F)cc2)nn1
Second compound 0.0316 µM
  pIC50: 7.14
Second compound 0.1 µM
  pIC50: < 7.00
Second compound 0.316 µM
  pIC50: 7.11
Second compound 1 µM
  pIC50: 7.06
Second compound 3.16 µM
  pIC50: 7.20
Second compound 10 µM
  pIC50: 7.28
Second compound 0.0316 µM, first compound 0.000316 µM
  viability, T/C: 89.2%
Second compound 0.0316 µM, first compound 0.001 µM
  viability, T/C: 103%
Second compound 0.0316 µM, first compound 0.00316 µM
  viability, T/C: 88.6%
Second compound 0.0316 µM, first compound 0.01 µM
  viability, T/C: 70.7%
[1]
  viability, T/C: 66.2%
[2]
  viability, T/C: 44%
Second compound 0.1 µM, first compound 0.000316 µM
  viability, T/C: 98.9%
Second compound 0.1 µM, first compound 0.001 µM
  viability, T/C: 95.7%
Second compound 0.1 µM, first compound 0.00316 µM
  viability, T/C: 94.8%
Second compound 0.1 µM, first compound 0.01 µM
  viability, T/C: 82.3%
[3]
  viability, T/C: 71%
[4]
  viability, T/C: 50.6%
Second compound 0.316 µM, first compound 0.000316 µM
  viability, T/C: 107%
Second compound 0.316 µM, first compound 0.001 µM
  viability, T/C: 121%
Second compound 0.316 µM, first compound 0.00316 µM
  viability, T/C: 87.5%
Second compound 0.316 µM, first compound 0.01 µM
  viability, T/C: 87%
[5]
  viability, T/C: 73.3%
[6]
  viability, T/C: 43%
Second compound 1 µM, first compound 0.000316 µM
  viability, T/C: 99.5%
Second compound 1 µM, first compound 0.001 µM
  viability, T/C: 100%
Second compound 1 µM, first compound 0.00316 µM
  viability, T/C: 97.2%
Second compound 1 µM, first compound 0.01 µM
  viability, T/C: 94.4%
[7]
  viability, T/C: 74%
[8]
  viability, T/C: 46.7%
Second compound 3.16 µM, first compound 0.000316 µM
  viability, T/C: 92.6%
Second compound 3.16 µM, first compound 0.001 µM
  viability, T/C: 96%
Second compound 3.16 µM, first compound 0.00316 µM
  viability, T/C: 92.1%
Second compound 3.16 µM, first compound 0.01 µM
  viability, T/C: 76.6%
[9]
  viability, T/C: 61.8%
[10]
  viability, T/C: 42.9%
Second compound 10 µM, first compound 0.000316 µM
  viability, T/C: 75.2%
Second compound 10 µM, first compound 0.001 µM
  viability, T/C: 86.1%
Second compound 10 µM, first compound 0.00316 µM
  viability, T/C: 92.5%
Second compound 10 µM, first compound 0.01 µM
  viability, T/C: 76.6%
[11]
  viability, T/C: 61.3%
[12]
  viability, T/C: 35.6%

## O=C(c1cc(Cc2n[nH]c(=O)c3ccccc23)ccc1F)N1CCN(C(=O)C2CC2)CC1 + Nc1ccc(C#CCN(C(=O)Cc2ncc(C(F)(F)F)cc2C(F)(F)F)c2ccc(F)cc2)nn1
Second compound 0.0316 µM
  pIC50: < 5.00
Second compound 0.1 µM
  pIC50: < 5.00
Second compound 0.316 µM
  pIC50: < 5.00
Second compound 1 µM
  pIC50: < 5.00
Second compound 3.16 µM
  pIC50: < 5.00
Second compound 10 µM
  pIC50: < 5.00
[1]
  viability, T/C: 84.3%
[2]
  viability, T/C: 109%
Second compound 0.0316 µM, first compound 0.316 µM
  viability, T/C: 94.2%
Second compound 0.0316 µM, first compound 1 µM
  viability, T/C: 81.7%
Second compound 0.0316 µM, first compound 3.16 µM
  viability, T/C: 97.1%
Second compound 0.0316 µM, first compound 10 µM
  viability, T/C: 88.1%
[3]
  viability, T/C: 102%
[4]
  viability, T/C: 104%
Second compound 0.1 µM, first compound 0.316 µM
  viability, T/C: 105%
Second compound 0.1 µM, first compound 1 µM
  viability, T/C: 84.9%
Second compound 0.1 µM, first compound 3.16 µM
  viability, T/C: 99.1%
Second compound 0.1 µM, first compound 10 µM
  viability, T/C: 106%
[5]
  viability, T/C: 101%
[6]
  viability, T/C: 81.2%
Second compound 0.316 µM, first compound 0.316 µM
  viability, T/C: 83.8%
Second compound 0.316 µM, first compound 1 µM
  viability, T/C: 94.7%
Second compound 0.316 µM, first compound 3.16 µM
  viability, T/C: 98.2%
Second compound 0.316 µM, first compound 10 µM
  viability, T/C: 83.4%
[7]
  viability, T/C: 104%
[8]
  viability, T/C: 98.4%
Second compound 1 µM, first compound 0.316 µM
  viability, T/C: 90.5%
Second compound 1 µM, first compound 1 µM
  viability, T/C: 94.8%
Second compound 1 µM, first compound 3.16 µM
  viability, T/C: 82.6%
Second compound 1 µM, first compound 10 µM
  viability, T/C: 87.5%
[9]
  viability, T/C: 90.7%
[10]
  viability, T/C: 106%
Second compound 3.16 µM, first compound 0.316 µM
  viability, T/C: 92.9%
Second compound 3.16 µM, first compound 1 µM
  viability, T/C: 95%
Second compound 3.16 µM, first compound 3.16 µM
  viability, T/C: 101%
Second compound 3.16 µM, first compound 10 µM
  viability, T/C: 90.9%
[11]
  viability, T/C: 88.1%
[12]
  viability, T/C: 93.9%
Second compound 10 µM, first compound 0.316 µM
  viability, T/C: 95.5%
Second compound 10 µM, first compound 1 µM
  viability, T/C: 89%
Second compound 10 µM, first compound 3.16 µM
  viability, T/C: 74%
Second compound 10 µM, first compound 10 µM
  viability, T/C: 83.9%
